From patent US11253589B2, “Modulation of the immune response” (priority 2007, dated 2022)
“Also recorded” adds a separate entry of the source.

What was measured:
C57BL/6 mice = assay: EAE induced by immunization with MOG35-55 in CFA; format: in vivo, mouse; set-up: EAE severity: dose or concentration left out as unconfirmed
CD4+Foxp3+ Treg = CD4+Foxp3+ Treg quantified by FACS in treated mice; format: in vivo, mouse; set-up: number of CD4+FoxP3+ Treg / number of CD4+Foxp3+ T cells / levels of LAP+ regulatory T cells / number of CD4+FoxP3:GFP+ Treg in blood and spleen: dose or concentration left out as unconfirmed
myelin specific T cells = assay: Recall response (proliferation, cytokine secretion) to MOG35-55 or anti-CD3 of cells from treated mice; format: in vivo, mouse
Experimental: Cells were cultured in serum-free X-VIVO 20™ media (BioWhittaker, Walkersville, Md., USA) for 72 hours. During the last 16 hours, cells were pulsed with 1 μCi of [^3H]thymidine (PerkinElmer, Waltham, Mass., USA) followed by harvesting on glass fiber filters and analysis of incorporated [^3H]thymidine in a beta-counter (1450 Microbeta, Trilux, PerkinElmer). Alternatively, culture supernatants were collected […] activation and the cytokine concentration was determined by ELISA using antibodies for IFN-γ, IL-17, IL-4, IL-10 from BD Biosciences and antibodies to TGF-β from R&D Systems. For suppression assays, MACS purified CD4^+CD25^− T cells from naïve C57BL/6 mice (1-5×10^4 cells/well) were stimulated with antibodies to CD3 and C57BL/6 irradiated spleen cells (0.3-1.5×10^4 cells/well) for 3 days in the presence of different ratios of CD4^+ GFP^+ retrovirus-transduced T cells.
To further characterize the suppression of EAE by AHR activation we studied the activity of myelin specific T cells induced by vaccination with MOG35-55/CFA in TCDD-treated mice.
In addition, cells were stimulated in culture medium containing 100 μg/ml MOG35-55 for 2 days or with PMA (50 ng/ml) (Sigma-Aldrich) and ionomycin ([…]) (Calbiochem, San Diego, Calif., USA) for 4 hours, Golgistop (BD Biosciences) was added to the culture during the last 4 hours. After staining of surface markers, cells were fixed and permeabilized using Cytofix/Cytoperm and Perm/Wash buffer from BD Biosciences according to the manufacturer's instructions. All antibodies to cytokines (IFN-gamma, IL-17, IL-10) including the corresponding isotype controls were obtained from BD Biosciences. Cells were incubated (1:100) at 25° C. for 20 min and washed twice in Perm/Wash before analysis. Data were acquired on a FACSCalibur (BD Biosciences) and analyzed with FlowJo software (Tree Star, Ashland, Oreg., USA).
We then studied the effect of ITE administration on the encephalitogenic response against myelin. EAE was induced on naïve C57BL/6 mice and ITE ([…]) was administered orally or intraperitoneally on daily basis.

CD11c+ and CD11b+ cells = assay: MHC class II expression on CD11c+ and CD11b+ cells by FACS; format: in vivo; conditions: ITE 200 mg/mouse ip daily or TCDD 1 mg/mouse ip on day 0; spleens 10 days after MOG35-55/CFA
From the text: AHR is known to be expressed by antigen presenting cells (APC) such as dendritic cells (CD11c^+) and macrophages (CD11b^+) (Vorderstrasse and Kerkvliet, Toxicol Appl Pharmacol. 171, 117 (2001); Laupeze et al., J Immunol. 168, 2652 (2002); Hayashi et al., Carcinogenesis. 16, 1403 (1995); Komura et al., Mol Cell Biochem. 226, 107 (2001)). To analyze the effects that AHR activation by ITE might have on different APC populations, which can potentially influence the generation of Teff and Treg cells, we studied the effect of ITE and TCDD treatment on MHC class II expression by as dendritic cells (CD11c^+) and macrophages (CD11b). C57BL/6 mice were treated with ITE (200 mg/mouse administered ip, daily) or TCDD (1 mg/mouse administered ip on day 0) and immunized them with […] of MOG35-55 in CFA. Spleens were prepared 10 days later and […] expression was investigated on CD11b^+ and CD11c^+ cells by FACS.

CD4+Foxp3:GFP- T cells = assay: In vitro conversion of CD4+Foxp3:GFP- T cells into Treg; format: cell-based, mouse; conditions: antibodies to CD3 and CD28 in the presence of TCDD, 5 days
Experimental: CD4+ T cells were purified from Foxp3gfp knock in mice using anti-CD4 beads (Miltenyi, Auburn, Calif., USA) and sorted (FACSAria™ cell sorter, BD Biosciences) into naive CD4^+ Foxp3:GFP^− or CD4^+ Foxp3:GFP T cells. CD4^+ Foxp3:GFP^− T cells were stimulated with plate bound 1 μg/ml of anti-CD3 (145-2C11, eBioscience) and 2 μg/ml of anti-CD28 (37.51, eBioscience) for 5 days, supplemented with recombinant IL-2 (50 U/ml) at day 2 and 4, and analyzed by FACS at day 5 for their differentiation into […]. TGFβ1 (2.5 ng/ml) was used as a positive control.
To establish if TCDD triggered the conversion of CD4^+Foxp3^− T cells into new Foxp3^+ Treg cells, FACS sorted CD4^+Foxp3:GFP− T cells were activated in vitro with antibodies to CD3 and CD28 in the presence of TCDD, and the generation of CD4^+Foxp3:GFP^+ Treg was followed by FACS. TGFb1 was used as a positive control.

[1] = ITE 200 μg/mouse daily, either orally or intraperitoneally
[2] = ITE ip daily, MOG35-55/CFA, spleens
[3] = ITE orally daily, MOG35-55/CFA, spleens
[4] = CD4+ T cells from ITE-treated mice vs control
[5] = ITE 200 mg/mice daily (FIG. 22: IP), splenocytes
[6] = C57BL/6 (WT) mice, TCDD 1 μg/mouse, Table 4
[7] = cells purified from TCDD-treated Foxp3gfp mice
[8] = draining lymph node cells of TCDD-treated mice vs control
[9] = lymph node cells of TCDD-treated mice, 10 days after MOG35-55/CFA

In the case of `COC(=O)c1csc(C(=O)c2c[nH]c3ccccc23)n1` [ITE, 2-(1′H-indole-3′-carbonyl)-thiazole-4-carboxylic acid methyl ester], the “protective effects on EAE” value (C57BL/6 mice; ITE 200 μg/mouse at weekly intervals instead of daily) was “complete loss of tis protective effects on EAE; also recorded: fails to suppress EAE development”, the EAE clinical score (C57BL/6 mice; [1]) was “significant reduction of EAE clinical score” and the “EAE development (delay)” value (C57BL/6 mice; [1]) was “significant delay on EAE development”. The EAE severity (C57BL/6 mice; administered on a daily basis) was “significant reduction on EAE severity”, the “number of CD4+FoxP3:GFP+ Treg in blood and spleen” value (CD4+Foxp3+ Treg; Foxp3gfp knock in mice, ITE ip daily, ten days after MOG35-55/CFA) was “significant increase in the number” and the “levels of LAP+ regulatory T cells” value (CD4+Foxp3+ Treg; [2]) was “did lead to significant alterations”. The “number of CD4+FoxP3+ Treg” value (CD4+Foxp3+ Treg; [2]) was “significant increase in the number”, the “levels of LAP+ regulatory T cells” value (CD4+Foxp3+ Treg; [3]) was “did lead to significant alterations” and the “number of CD4+FoxP3+ Treg” value (CD4+Foxp3+ Treg; [3]) was “significant increase in the number”. The “IFNg secretion upon activation with MOG35-55” value (myelin specific T cells; [4]) was “lower amounts”, the “IL2 secretion upon activation with MOG35-55” value (myelin specific T cells; [4]) was “lower amounts” and the “IL6 secretion upon activation with MOG35-55” value (myelin specific T cells; [4]) was “lower amounts”. The “IL17 secretion upon activation with MOG35-55” value (myelin specific T cells; [4]) was “lower amounts”, the “IL-10 secretion upon activation with MOG35-55” value (myelin specific T cells; [4]) was “higher amounts” and the “TGFb1 secretion upon activation with MOG35-55” value (myelin specific T cells; [4]) was “higher amounts”. The “recall response of purified CD4+ T cells” value (myelin specific T cells; Foxp3gfp mice, ITE 200 mg/mice intraperitoneal daily) was “suppressed response to MOG35-55 but not to anti-CD3”, the “proliferative response upon activation with antibodies to CD3” value (myelin specific T cells; [5]) was “no differences were seen” and the “recall proliferative response to the MOG35-55 peptide” value (myelin specific T cells; [5]) was “suppressed recall proliferative response”. For the same compound, the “secretion of IFNg by lymph node cells activated with MOG35-55 or αCD3” value (myelin specific T cells; ITE-treated mice) was “significant reduction in the secretion”, the “secretion of IL-17 by lymph node cells activated with MOG35-55 or αCD3” value (myelin specific T cells; ITE-treated mice) was “significant reduction in the secretion” and the “CD11b+ MHC class II expression” value (CD11c+ and CD11b+ cells) was “significant increase”. The “CD11c+ MHC class II expression” value (CD11c+ and CD11b+ cells) was “significant decrease”.
`Clc1cc2c(cc1Cl)Oc1cc(Cl)c(Cl)cc1O2` [TCDD, 2,3,7,8 tetrachlorodibenzo-p-dioxin] was tested, and the EAE development (C57BL/6 mice; AHR-ligand loaded nanoparticles, 45 femtomoles weekly starting at day 0) was “complete suppression of EAE”, the “Mean day of onset (Mean ± SD)” value (C57BL/6 mice; [6]) was 21 days and the “Mean maximum score (mean ± SD)” value (C57BL/6 mice; [6]) was 0.2 ± 0.6. For the same compound, the “histopathological signs of EAE (cellular infiltrate, demyelination, axonal loss in spinal cord)” value (C57BL/6 mice; IP administered TCDD, day 19 after EAE induction) was “reduced the histopathological signs of EAE; also recorded: inhibits CNS inflammation, demyelination and axonal loss”, the “Incidence (positive/total)” value (C57BL/6 mice; TCDD 0.01 μg per mouse ip) was 7/7 and the “Mean day of onset (Mean ± standard deviation (SD))” value (C57BL/6 mice; TCDD 0.01 μg per mouse ip) was 14.1 ± 2.9 days. The “Mean maximum score (mean ± SD)” value (C57BL/6 mice; TCDD 0.01 μg per mouse ip, EAE score 0-5) was 2.7 ± 0.6, the “Mean day of onset (Mean ± standard deviation (SD))” value (C57BL/6 mice; TCDD 0.1 μg per mouse ip) was 17.0 ± 1.2 days and the “Mean maximum score (mean ± SD)” value (C57BL/6 mice; TCDD 0.1 μg per mouse ip, EAE score 0-5) was 3.1 ± 0.5. The “Mean day of onset (Mean ± standard deviation (SD))” value (C57BL/6 mice; TCDD 1 μg per mouse ip, then MOG35-55/CFA) was 21.8 ± 1.5 days, the “Mean maximum score (mean ± SD)” value (C57BL/6 mice; TCDD 1 μg per mouse ip, then MOG35-55/CFA, EAE score 0-5) was 0.2 ± 0.6 and the “clinical signs of EAE” value (C57BL/6 mice; TCDD 1 μg/mouse ip) was “markedly inhibited the clinical signs of EAE”. For the same compound, the EAE development (C57BL/6 mice; TCDD 1 μg/mouse orally, one day before EAE induction) was “prevented EAE development”, the “onset of EAE” value (C57BL/6 mice; natural Treg depleted with antibodies to CD25 prior to TCDD treatment) was “significant delay in the onset of EAE” and the “number of CD4+FoxP3+ Treg” value (CD4+Foxp3+ Treg; TCDD ip, draining lymph nodes, without immunization) was “small increase”. The “frequency of CD4+Foxp3+ T cells” value (CD4+Foxp3+ Treg; TCDD ip, spleen, 21 days after EAE induction) was “significant increase in the frequency”, the “rebound in Treg numbers” value (CD4+Foxp3+ Treg; natural Treg depleted with antibodies to CD25 prior to TCDD treatment, day 7) was “faster rebound in their Treg numbers” and the “number of CD4+Foxp3+ T cells” value (CD4+Foxp3+ Treg; single TCDD ip followed by MOG35-55/CFA immunization, draining lymph nodes 10 days later) was “significant increase”. For the same compound, the “conversion of cells in culture into CD4+Foxp3:GFP+ Treg” value (CD4+Foxp3:GFP- T cells) was “approximately 13%”, the “proliferation of effector CD4+ Foxp3:GFP- T cells to MOG35-55” value (myelin specific T cells; [7]) was “normal proliferation” and the “secretion of IFNγ by effector CD4+ Foxp3:GFP- T cells upon activation with MOG35-55” value (myelin specific T cells; [7]) was “significantly decreased secretion”. The “secretion of IL-17 by effector CD4+ Foxp3:GFP- T cells upon activation with MOG35-55” value (myelin specific T cells; [7]) was “significantly decreased secretion”, the “IFNg secretion upon activation with MOG35-55” value (myelin specific T cells; [8]) was “lower amounts” and the “IL-17 secretion upon activation with MOG35-55” value (myelin specific T cells; [8]) was “lower amounts”. For the same compound, the “TGFb1 secretion upon activation with MOG35-55” value (myelin specific T cells; [8]) was “higher amounts”, the “proliferative response upon activation with antibodies to CD3” value (myelin specific T cells; [9]) was “no differences were seen” and the “recall proliferative response to the MOG35-55 peptide” value (myelin specific T cells; [9]) was “suppressed recall proliferative response”. For the same compound, the “CD11b+ MHC class II expression” value (CD11c+ and CD11b+ cells) was “significant increase” and the “CD11c+ MHC class II expression” value (CD11c+ and CD11b+ cells) was “significant decrease”.
